The source of these data is US20250346585A1 (Alexion Pharmaceuticals, Inc., priority 2022, published 2025).

SMILES strings stand for the structures.

Human complement C1s enzyme, sequence (P09871 438-688 limits assumed): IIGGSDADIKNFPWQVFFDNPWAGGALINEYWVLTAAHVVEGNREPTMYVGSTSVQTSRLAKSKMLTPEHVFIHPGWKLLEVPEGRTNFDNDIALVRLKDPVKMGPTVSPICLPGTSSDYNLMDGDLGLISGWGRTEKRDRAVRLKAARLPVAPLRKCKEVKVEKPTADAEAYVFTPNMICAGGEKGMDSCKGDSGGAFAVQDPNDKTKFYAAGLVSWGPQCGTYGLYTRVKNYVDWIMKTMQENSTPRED
Human complement C1s enzyme, sequence (P09871 16-437 partner limits assumed): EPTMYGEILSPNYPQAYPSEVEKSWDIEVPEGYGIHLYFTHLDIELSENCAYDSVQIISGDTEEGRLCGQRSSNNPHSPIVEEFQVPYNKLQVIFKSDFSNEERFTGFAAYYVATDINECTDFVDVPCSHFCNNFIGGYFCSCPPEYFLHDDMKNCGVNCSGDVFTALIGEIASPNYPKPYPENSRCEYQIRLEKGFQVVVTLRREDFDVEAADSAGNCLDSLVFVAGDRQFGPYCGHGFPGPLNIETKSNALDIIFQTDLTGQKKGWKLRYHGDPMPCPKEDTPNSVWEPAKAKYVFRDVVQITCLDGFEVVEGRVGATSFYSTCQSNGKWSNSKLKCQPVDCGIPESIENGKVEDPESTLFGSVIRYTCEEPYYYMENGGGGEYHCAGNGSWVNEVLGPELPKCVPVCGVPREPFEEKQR

The target of this test is Human complement C1s enzyme (Homo sapiens (Human), UniProt P09871). As to the kind of experiment: Human C1s enzyme assay. The format is biochemical. The note with it: Human C1s enzyme assay of Example 3; read-out: IC50 (Stars). Summed up:
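Purified serum-derived human C1s (1.16 nM final) preincubated 5 min at room temperature with compound in 50 mM Tris, 1 M NaCl, pH 7.5. Z-L-Lys-SBzl thioester substrate and DTNB added (100 μM each, final); A405 read every 30 s for 30 min. IC50 from nonlinear regression of reaction rates against compound concentration.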
In the case of `C[C@@H](NC(=O)[C@@H]1CC2(CN1C(=O)CNC(=O)c1ccc3c(c1)-c1ccccc1-3)OCCO2)c1cc(C(=N)N)cs1` [Compound 95, (S)-7-((biphenylene-2-carbonyl)glycyl)-N—((R)-1-(4-carbamimidoylthiophen-2-yl)ethyl)-1,4-dioxa-7-azaspiro[4.4]nonane-8-carboxamide], the IC50 was less than 100 nM.
Next, `C[C@@H](NC(=O)[C@@H]1CC2(CN1C(=O)CNC(=O)c1ccc3c(c1)-c1ccccc1C3(F)F)OCCO2)c1cc(-c2c[nH]cn2)cs1` [Compound 96, (S)—N—((R)-1-(4-(1H-imidazol-4-yl)thiophen-2-yl)ethyl)-7-((9,9-difluoro-9H-fluorene-3-carbonyl)glycyl)-1,4-dioxa-7-azaspiro[4.4]nonane-8-carboxamide]: 100 to 1000 nM.
Next, `C[C@@H](NC(=O)[C@@H]1CC2(CN1C(=O)CNC(=O)c1ccc3c(c1)-c1ccccc1C3(F)F)OCCO2)c1cc(-c2cc[nH]n2)cs1` [Compound 97, (S)—N—((R)-1-(4-(1H-pyrazol-3-yl)thiophen-2-yl)ethyl)-7-((9,9-difluoro-9H-fluorene-3-carbonyl)glycyl)-1,4-dioxa-7-azaspiro[4.4]nonane-8-carboxamide]: more than 1000 nM.
To `C[C@@H](NC(=O)[C@@H]1C[C@H](C2CCCCC2)CN1C(=O)CNC(=O)c1ccc2c(c1)-c1ccccc1C2(F)F)c1cc(C(=N)N)cs1` [Compound 98, (2S,4R)—N—((R)-1-(4-carbamimidoylthiophen-2-yl)ethyl)-4-cyclohexyl-1-((9,9-difluoro-9H-fluorene-3-carbonyl)glycyl)pyrrolidine-2-carboxamide] belongs less than 100 nM; to `CC1c2ccccc2-c2cc(C(=O)NCC(=O)N3CC4(C[C@H]3C(=O)N[C@H](C)c3cc(C(=N)N)cs3)OCCO4)ccc21` (stereo partly drawn) [Compound 99, (8S)—N-[(1R)-1-(4-carbamimidoylthiophen-2-yl)ethyl]-7-{2-[(9-methyl-9H-fluoren-3-yl)formamido]acetyl}-1,4-dioxa-7-azaspiro[4.4]nonane-8-carboxamide], less than 100 nM.
Consider `C[C@@H](NC(=O)[C@@H]1CC2(CN1C(=O)CNC(=O)c1ccc3c(c1)-c1ccccc1C3(F)F)OCCO2)c1cc(-c2cnc(N)nc2)cs1` [Compound 100, (S)—N—((R)-1-(4-(2-aminopyrimidin-5-yl)thiophen-2-yl)ethyl)-7-((9,9-difluoro-9H-fluorene-3-carbonyl)glycyl)-1,4-dioxa-7-azaspiro[4.4]nonane-8-carboxamide], for which the IC50 was more than 1000 nM.
To `C[C@@H](NC(=O)[C@@H]1CC2(CN1C(=O)CNC(=O)c1ccc(-c3ccc(F)cc3)cc1)OCCO2)c1cc(C(=N)N)cs1` [Compound 101, (S)—N—((R)-1-(4-carbamimidoylthiophen-2-yl)ethyl)-7-((4′-fluoro-[1,1′-biphenyl]-4-carbonyl)glycyl)-1,4-dioxa-7-azaspiro[4.4]nonane-8-carboxamide] belongs less than 100 nM.
Consider `Cc1ccc(-c2cnc(C(=O)NCC(=O)N3CC4(C[C@H]3C(=O)NCc3cc(C(=N)N)cs3)OCCO4)c(F)c2)cc1` [Compound 102, (S)—N-((4-carbamimidoylthiophen-2-yl)methyl)-7-((3-fluoro-5-(p-tolyl)picolinoyl)glycyl)-1,4-dioxa-7-azaspiro[4.4]nonane-8-carboxamide], for which the IC50 is less than 100 nM.
With `Nc1cccc(-c2csc(CNC(=O)[C@@H]3CC4(CN3C(=O)CNC(=O)c3ccc(Oc5ccc(F)cc5)cc3)OCCO4)c2)n1` [Compound 103, (S)—N-((4-(6-aminopyridin-2-yl)thiophen-2-yl)methyl)-7-((4-(4-fluorophenoxy)benzoyl)glycyl)-1,4-dioxa-7-azaspiro[4.4]nonane-8-carboxamide], the IC50 was more than 1000 nM.
To `Cn1ccc2cc(-c3ccc(C(=O)NCC(=O)N4CC5(C[C@H]4C(=O)NCc4cc(C(=N)N)cs4)OCCO5)cc3)ccc21` [Compound 104, (S)—N-((4-carbamimidoylthiophen-2-yl)methyl)-7-((4-(1-methyl-1H-indol-5-yl)benzoyl)glycyl)-1,4-dioxa-7-azaspiro[4.4]nonane-8-carboxamide] belongs less than 100 nM.

Usually IC50 stands for the midpoint of a concentration-inhibition curve.
